The record followed here is ChEMBL document CHEMBL1201862, “PubChem BioAssay data set” (2004).

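Exposure lasted 48 hours, with cells grown in 96-well plates and compounds tested at five concentrations. Abbreviation: GI50, concentration required for 50% inhibition of growth.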 Active and inactive are the calls of the source. Rule as the data show it: active = GI50 up to about 1.1 µM and inactive = higher.

One may read the GI50 as the concentration that inhibits growth by half.

What all share (assay): DTP human tumour cell line panel, 48 h
Test [1] concerns HOP-92.
Test [2] has as its system HCC 2998.
The subject of test [3] is Malme-3M.
Test [4] has as its system UACC-257.
Test [5] has as its system OVCAR-4.
Test [6] concerns HCT-15.
Test [7] has as its system TK-10.
For test [8], the system named is SF-268.
In test [9] the test system is SF-295.
The subject of test [10] is SK-MEL-28.
The subject of test [11] is EKVX.
Test [12] concerns HOP-62.
The test system of test [13] is SF-539.
Test [14] has as its system LOX IMVI.
In test [15] the test system is COLO 205.
Test [16] deals with A498.

Regarding `CCOC(=O)C(=O)Nc1ccc([N+](=O)[O-])cc1C#N`, the GI50 in [1] was > 100 µM (inactive); in [2], > 100 µM (inactive); in [3], > 100 µM (inactive); in [4], > 100 µM (inactive); in [5], > 100 µM (inactive); in test [6], over 100 µM. Further, the GI50 in test [7], in test [8], in test [9], in test [10], in [11] and in test [12] was > 100 µM (inactive) in each case. For the same molecule, the GI50 in test [13] and in [14] was > 100 µM (inactive) in each case.

Take `COC(=O)C(C(=O)C(=O)Nc1ccc(C)cc1C)c1nc2ccc([N+](=O)[O-])cc2nc1O` (stereo not drawn): the GI50 in test [1] was > 100 µM (inactive); in [3], > 100 µM (inactive); in test [4] it was > 100 µM (inactive); in [15] it was 95.7 µM (inactive); in test [5], > 100 µM (inactive); in [6], over 100 µM. The GI50 in test [7], in test [8], in test [9], in test [16], in test [10] and in test [11] was > 100 µM (inactive) throughout. Moreover, the GI50 in test [12], in test [13] and in [14] was > 100 µM (inactive) each time.

As to `Cc1ccc(/C=C(\NC(=O)c2ccccc2)c2nc3ccccc3[nH]2)cc1`, the GI50 in test [1] is 28.3 µM (inactive); in [2] it was 49.5 µM (inactive); in [3] it was 45.5 µM (inactive); in [4], 35.3 µM (inactive); in [15], 48.2 µM (inactive); in test [5], 70.5 µM (inactive). Further, the concentration for 50% growth inhibition (GI50) is 45.6 µM in test [6]; > 100 µM (inactive) in test [7]; 60.8 µM (inactive) in [8]; 36.6 µM (inactive) in [9]; 38 µM (inactive) in test [16]; 71.9 µM (inactive) in [10]. For the same molecule, the GI50 in test [11] was 74.5 µM (inactive); in test [12], > 100 µM (inactive); in test [13] it was > 100 µM (inactive).

Turning to `CCO[C@]12C[C@H](OC)[C@@]3(O)CC(C1[C@H]3OCc1ccccc1)C13C4C2[C@H](OC)C1[C@](COC)(CN4CC)[C@H](O)C[C@@H]3OC` (stereo partly drawn), the GI50 is > 100 µM (inactive) in test [2]; > 100 µM (inactive) in [4]; > 100 µM (inactive) in [15]; > 100 µM (inactive) in test [5]; over 100 µM in test [6]; > 100 µM (inactive) in [7]. Further, the GI50 in [8], in test [10], in [11], in test [12], in [13] and in test [14] was > 100 µM (inactive) each time.

For the molecule `Cc1nc(N)nc(N)c1CCCCc1ccc(N)cc1`, the GI50 in test [1] is 3.93 µM (inactive); in [2], 3.25 µM (inactive); in [3], 1.96 µM (inactive); in test [4], 5.07 µM (inactive); in [15], 10.4 µM (inactive); in [5], 10.6 µM (inactive). In addition, the GI50 is 4.09 µM in test [6]; 11.5 µM (inactive) in test [7]; 0.995 µM (active) in [8]; 1.94 µM (inactive) in [9]; 10.1 µM (inactive) in test [10]; 9.23 µM (inactive) in test [11]. Besides, the GI50 in [12] is 5.11 µM (inactive); in test [13] it was 7.98 µM (inactive); in test [14], 1.09 µM (active).

Regarding `Cc1cccc(N2C(=O)/C(=C/c3ccc(N(CCC#N)CCC#N)cc3C)N=C2c2cc([N+](=O)[O-])ccc2Cl)c1`, the GI50 in [1] was > 100 µM (inactive); in test [2] it was > 100 µM (inactive); in test [3] it was > 100 µM (inactive); in [4], > 100 µM (inactive); in test [15], 47.3 µM (inactive); in [5], > 100 µM (inactive). Further, the 50% growth inhibitory concentration (GI50) in test [6] is over 100 µM; in test [7] it was > 100 µM (inactive); in test [8], > 100 µM (inactive); in [9], > 100 µM (inactive); in [16], > 100 µM (inactive); in test [10] it was > 100 µM (inactive). Moreover, the GI50 in test [11] was 68.1 µM (inactive); in test [12], > 100 µM (inactive); in [13] it was > 100 µM (inactive).

For `CN1CC[C@]2(C)c3cc(O)ccc3CC3CCCC1C32C` (stereo partly drawn), the GI50 is > 100 µM (inactive) in [1]; 47.2 µM (inactive) in test [2]; > 100 µM (inactive) in test [3]; > 100 µM (inactive) in [4]; > 100 µM (inactive) in test [15]; over 100 µM in [6]. The GI50 in test [7], in test [8], in [9], in [16], in test [10] and in [11] was > 100 µM (inactive) each time. In addition, the GI50 in test [12], in test [13] and in test [14] was > 100 µM (inactive) each time.

For the molecule `CC(=O)OCC1OC(n2c(=O)[nH]c(=O)c3nn[nH]c32)C(OC(C)=O)C(OC(C)=O)C1OC(C)=O` (stereo not drawn), the GI50 in [1] is > 100 µM (inactive); in test [2] it was > 100 µM (inactive); in test [3], > 100 µM (inactive); in test [4], > 100 µM (inactive); in test [15] it was > 100 µM (inactive); in [5], 66.5 µM (inactive). The GI50 in test [6] was over 100 µM; in test [7], > 100 µM (inactive); in test [8], > 100 µM (inactive); in [9] it was > 100 µM (inactive); in test [16], > 100 µM (inactive); in [10], > 100 µM (inactive). Further, the GI50 in [11], in test [12] and in test [14] was > 100 µM (inactive) throughout.

Consider `O=C1C2c3[nH]c4ccccc4c3[C@@H]3CCCCC3C2C(=O)N1c1ccccc1` (stereo partly drawn), for which the GI50 is 19.3 µM (inactive) in test [2]; 20.6 µM (inactive) in test [3]; 19.1 µM (inactive) in test [15]; 20.5 µM (inactive) in test [5]; 25.7 µM in test [6]; 28 µM (inactive) in test [7]. Moreover, the GI50 was 18.7 µM (inactive) in [8]; 21.1 µM (inactive) in test [9]; 28.6 µM (inactive) in [16]; 18.2 µM (inactive) in [10]; 15.3 µM (inactive) in test [11]; > 10 µM (inactive) in test [13]. Moreover, in [14], the GI50 was 15.8 µM (inactive).

For `CC1(C)O/C(=C\c2ccccc2)C(=O)/C(=C/c2ccccc2)O1`, the GI50 is 29.9 µM (inactive) in test [1]; 38 µM (inactive) in test [3]; 22.5 µM (inactive) in test [4]; 43.3 µM (inactive) in test [15]; 56.6 µM (inactive) in test [5]; 44.2 µM (inactive) in test [7]. The GI50 in test [8] is 57.4 µM (inactive); in test [9], 44.9 µM (inactive); in test [16] it was > 100 µM (inactive); in test [10], 50.4 µM (inactive); in [11], 37.9 µM (inactive); in [12] it was 74.8 µM (inactive). Also, the GI50 is 67 µM (inactive) in [13] and 28.6 µM (inactive) in test [14].

Regarding `O=C(c1ccco1)N(C(=S)N1CCN(c2ccccc2)CC1)c1ccccc1`, the GI50 in [1] was > 100 µM (inactive); in test [3], > 100 µM (inactive); in test [4] it was > 100 µM (inactive); in [15], > 100 µM (inactive); in test [5], > 100 µM (inactive); in test [6], over 100 µM. Besides, the GI50 in test [7], in [8], in test [9], in test [10], in test [12] and in test [13] was > 100 µM (inactive) each time. In [14], the GI50 is > 100 µM (inactive).

As for `COc1cc2c(cc1OC)C(=O)N1CCCC1C(=O)S2` (stereo not drawn), the GI50 was > 100 µM (inactive) in test [1]; > 100 µM (inactive) in [2]; > 100 µM (inactive) in [3]; > 100 µM (inactive) in test [4]; > 100 µM (inactive) in test [15]; over 100 µM in test [6]. Also, the GI50 in [7], in test [8], in test [9], in test [10], in [11] and in test [12] was > 100 µM (inactive) each time. Besides, the GI50 in test [13] and in test [14] was > 100 µM (inactive) throughout.

Turning to `Oc1ccc(-c2n[nH]c(S)n2)cc1`, the GI50 in test [1] was > 100 µM (inactive); in test [3], > 100 µM (inactive); in [4], > 100 µM (inactive); in test [15], > 100 µM (inactive); in [5], > 100 µM (inactive); in test [6], over 100 µM. Moreover, the GI50 in [7], in test [8], in test [9], in [16], in test [10] and in [11] was > 100 µM (inactive) in each case. The GI50 in test [12] and in [13] was > 100 µM (inactive) throughout.

Consider `O=C(O)C12C3CCC(C3)C1(C(=O)O)C1CCC2C1` (stereo not drawn), for which the GI50 was > 100 µM (inactive) in test [1]; > 100 µM (inactive) in [2]; > 100 µM (inactive) in test [3]; > 100 µM (inactive) in test [4]; 33 µM (inactive) in test [15]; 39.8 µM in test [6]. In addition, the GI50 in test [7], in test [8], in test [9], in test [16], in test [10] and in [11] was > 100 µM (inactive) in each case. Also, the GI50 was > 100 µM (inactive) in test [12] and 23.7 µM (inactive) in test [14].
